Measurements taken from paper PMC5218480 (PLoS ONE, 2017).

Tested on: MV-4-11 cells
Experiment: Gene expression microarray analysis (Affymetrix PrimeView) and GSEA
Format: cell-based, human
Design: RFU PODN (11730768_x_at) / Fold change /veh PODN (11730768_x_at) / RFU LINC00158 (11744669_a_at) / Fold change /veh LINC00158 (11744669_a_at) / RFU DUSP10 (11751237_a_at) / Fold change /veh DUSP10 (11751237_a_at) / RFU ID3 (11757404_x_at) / Fold change /veh ID3 (11757404_x_at) / RFU PLEKHG5 (11737974_s_at) / Fold change /veh PLEKHG5 (11737974_s_at) / RFU LRRC4B (11730491_at) / Fold change /veh LRRC4B (11730491_at) / RFU GIMAP4 (11747438_a_at) / Fold change /veh GIMAP4 (11747438_a_at) / RFU KRT8 (11758183_x_at) / Fold change /veh KRT8 (11758183_x_at) / RFU CNN1 (11734310_a_at) / Fold change /veh CNN1 (11734310_a_at) / RFU VPS37D (11726825_at) / Fold change /veh VPS37D (11726825_at) / RFU C10orf10 (11716522_x_at) / Fold change /veh C10orf10 (11716522_x_at) / RFU KIR2DL2 /// KIR2DL4 /// KIR2DL5A /// KIR2DL5B /// KIR2DS1 /// KIR2DS2 /// KIR2DS3 /// KIR2DS4 /// KIR3DL3 /// KIR3DL3 /// KIR3DS1 (11738374_at) / Fold change /veh KIR2DL2 /// KIR2DL4 /// KIR2DL5A /// KIR2DL5B /// KIR2DS1 /// KIR2DS2 /// KIR2DS3 /// KIR2DS4 /// KIR3DL3 /// KIR3DL3 /// KIR3DS1 (11738374_at) / RFU C1QL1 (11718748_at) / Fold change /veh C1QL1 (11718748_at) / RFU TMPRSS4 (11747572_a_at) / Fold change /veh TMPRSS4 (11747572_a_at) / RFU HAMP (11756126_x_at) / Fold change /veh HAMP (11756126_x_at) / RFU RNFT2 (11725882_a_at) / Fold change /veh RNFT2 (11725882_a_at) / RFU NR4A2 (11747474_a_at) / Fold change /veh NR4A2 (11747474_a_at) / RFU ABCC12 (11746883_a_at) / Fold change /veh ABCC12 (11746883_a_at) / RFU TMEM136 (11760407_x_at) / Fold change /veh TMEM136 (11760407_x_at) / RFU CLDN22 /// WWC2 (11732394_at) / Fold change /veh CLDN22 /// WWC2 (11732394_at) / RFU HLA-DPB1 (11760878_x_at) / Fold change /veh HLA-DPB1 (11760878_x_at) / RFU SPINT1 (11716480_a_at) / Fold change /veh SPINT1 (11716480_a_at) / RFU GAP43 (11754022_s_at) / Fold change /veh GAP43 (11754022_s_at) / RFU A4GNT (11735810_at) / Fold change /veh A4GNT (11735810_at) / RFU PRB3 (11715151_x_at) / Fold change /veh PRB3 (11715151_x_at) / RFU TUBB4B (11761932_at) / Fold change /veh TUBB4B (11761932_at) / RFU CAPN14 (11732068_a_at) / Fold change /veh CAPN14 (11732068_a_at) / RFU TMCC2 (11721928_a_at) / Fold change /veh TMCC2 (11721928_a_at) / RFU IRGQ (11745062_a_at) / Fold change /veh IRGQ (11745062_a_at) / RFU FAM174B (11720279_a_at) / Fold change /veh FAM174B (11720279_a_at) / RFU TMPRSS4 (11748680_a_at) / Fold change /veh TMPRSS4 (11748680_a_at) / RFU FAM212B (11763350_a_at) / Fold change /veh FAM212B (11763350_a_at) / RFU PLEKHG5 (11743358_a_at) / Fold change /veh PLEKHG5 (11743358_a_at) / RFU ZSCAN30 (11745921_a_at) / Fold change /veh ZSCAN30 (11745921_a_at) / RFU CMKLR1 (11741424_a_at) / Fold change /veh CMKLR1 (11741424_a_at) / RFU LOC101060620 /// MAPK8IP1 (11723275_at) / Fold change /veh LOC101060620 /// MAPK8IP1 (11723275_at) / RFU SPTSSB (11747773_x_at) / Fold change /veh SPTSSB (11747773_x_at) / RFU PRSS12 (11739890_at) / Fold change /veh PRSS12 (11739890_at) / RFU BIN1 (11741810_x_at) / Fold change /veh BIN1 (11741810_x_at) / RFU WNT11 (11732464_a_at) / Fold change /veh WNT11 (11732464_a_at) / RFU C10orf10 (11716521_a_at) / Fold change /veh C10orf10 (11716521_a_at) / RFU C5orf56 (11738089_at) / Fold change /veh C5orf56 (11738089_at) / RFU CYB561 (11721691_x_at) / Fold change /veh CYB561 (11721691_x_at) / RFU ANKRD19P (11752326_a_at) / Fold change /veh ANKRD19P (11752326_a_at) / RFU OR2T12 /// OR2T33 /// OR2T8 (11738714_s_at) / Fold change /veh OR2T12 /// OR2T33 /// OR2T8 (11738714_s_at) / RFU VCAN (11748164_a_at) / Fold change /veh VCAN (11748164_a_at) / RFU JSRP1 (11732532_at) / Fold change /veh JSRP1 (11732532_at) / RFU KRTAP10-11 (11738290_x_at) / Fold change /veh KRTAP10-11 (11738290_x_at) / RFU MYO3A (11730013_a_at) / Fold change /veh MYO3A (11730013_a_at) / RFU EBF3 (11725865_a_at) / Fold change /veh EBF3 (11725865_a_at) / RFU CAMK2N1 (11719241_x_at) / Fold change /veh CAMK2N1 (11719241_x_at) / RFU C5orf56 (11738088_a_at) / Fold change /veh C5orf56 (11738088_a_at) / RFU OLFML3 (11715873_a_at) / Fold change /veh OLFML3 (11715873_a_at) / RFU LOC100653217 /// NTM (11731650_a_at) / Fold change /veh LOC100653217 /// NTM (11731650_a_at) / RFU MAPK11 (11762145_a_at) / Fold change /veh MAPK11 (11762145_a_at) / RFU FIZ1 (11724087_x_at) / Fold change /veh FIZ1 (11724087_x_at) / RFU OASL (11726364_x_at) / Fold change /veh OASL (11726364_x_at) / RFU SOX15 (11748057_x_at) / Fold change /veh SOX15 (11748057_x_at) / RFU CD79A (11719716_a_at) / Fold change /veh CD79A (11719716_a_at) / RFU HIST1H1D (11736915_at) / Fold change /veh HIST1H1D (11736915_at) / RFU CASKIN2 (11723855_a_at) / Fold change /veh CASKIN2 (11723855_a_at) / RFU LOC730098 (11760151_x_at) / Fold change /veh LOC730098 (11760151_x_at) / RFU OR4N2 (11742367_at) / Fold change /veh OR4N2 (11742367_at) / RFU PRRT2 (11749266_a_at) / Fold change /veh PRRT2 (11749266_a_at) / RFU SNX32 (11753110_a_at) / Fold change /veh SNX32 (11753110_a_at) / RFU CDHR5 (11726645_a_at) / Fold change /veh CDHR5 (11726645_a_at) / RFU RCAN1 (11760418_a_at) / Fold change /veh RCAN1 (11760418_a_at) / RFU FAM167A (11723789_a_at) / Fold change /veh FAM167A (11723789_a_at) / RFU FAM26E (11764081_at) / Fold change /veh FAM26E (11764081_at) / RFU ISYNA1 (11749810_s_at) / Fold change /veh ISYNA1 (11749810_s_at) / RFU ACY1 (11761880_at) / Fold change /veh ACY1 (11761880_at) / RFU 11764098_at / Fold change /veh 11764098_at / RFU SAMD14 (11745864_x_at) / Fold change /veh SAMD14 (11745864_x_at) / RFU NPB (11741838_a_at) / Fold change /veh NPB (11741838_a_at) / RFU TMPRSS6 (11731388_a_at) / Fold change /veh TMPRSS6 (11731388_a_at) / RFU KRTAP10-2 (11738614_at) / Fold change /veh KRTAP10-2 (11738614_at) / RFU ARHGAP8 /// PRR5-ARHGAP8 (11727945_x_at) / Fold change /veh ARHGAP8 /// PRR5-ARHGAP8 (11727945_x_at) / RFU KRTAP5-7 /// NADSYN1 (11734609_at) / Fold change /veh KRTAP5-7 /// NADSYN1 (11734609_at) / RFU RASL12 (11751679_a_at) / Fold change /veh RASL12 (11751679_a_at) / RFU CDKN2B (11736163_a_at) / Fold change /veh CDKN2B (11736163_a_at) / RFU PRF1 (11729649_at) / Fold change /veh PRF1 (11729649_at) / RFU, ZNF638 /// ZNF638-IT1 / Fold change vs veh, ZNF638 /// ZNF638-IT1 / RFU, PANK3 / Fold change vs veh, PANK3 / RFU, SH3YL1 / Fold change vs veh, SH3YL1 / RFU, ZEB2 / Fold change vs veh, ZEB2 / RFU, NRIP1 / Fold change vs veh, NRIP1 / RFU, PTTG1IP / Fold change vs veh, PTTG1IP / RFU, CAPN2 / Fold change vs veh, CAPN2 / RFU, MED14 / Fold change vs veh, MED14 / RFU, SNORA58 / Fold change vs veh, SNORA58 / RFU, C1orf63 / Fold change vs veh, C1orf63 / RFU, LRRFIP1 / Fold change vs veh, LRRFIP1 / RFU, NDUFAF7 / Fold change vs veh, NDUFAF7 / RFU, SLC12A2 / Fold change vs veh, SLC12A2 / RFU, IBTK / Fold change vs veh, IBTK / RFU, ESF1 / Fold change vs veh, ESF1 / Fold change vs veh, TMEM50B / RFU, TAOK1 / Fold change vs veh, TAOK1 / RFU, ACBD3 / Fold change vs veh, ACBD3 / RFU, TMA16 / Fold change vs veh, TMA16 / RFU, RWDD3 / Fold change vs veh, RWDD3 / RFU, BCAT1 / Fold change vs veh, BCAT1 / RFU, EDEM3 / Fold change vs veh, EDEM3 / RFU, TMEM33 / Fold change vs veh, TMEM33 / RFU, WDR75 / Fold change vs veh, WDR75 / RFU, AHCTF1 / Fold change vs veh, AHCTF1 / RFU, TFRC / Fold change vs veh, TFRC / RFU, ZDHHC17 / Fold change vs veh, ZDHHC17 / RFU, NOM1 / Fold change vs veh, NOM1 / RFU, ARL8B / Fold change vs veh, ARL8B / RFU, ZBTB11 / Fold change vs veh, ZBTB11 / RFU, TAMM41 / Fold change vs veh, TAMM41 / RFU, KIAA1704 /// LOC100996395 / Fold change vs veh, KIAA1704 /// LOC100996395 / RFU, ING1 / Fold change vs veh, ING1 / RFU, TRMT61B / Fold change vs veh, TRMT61B / RFU, FUBP3 / Fold change vs veh, FUBP3 / RFU, TP53 / Fold change vs veh, TP53 / RFU, TNKS2 / Fold change vs veh, TNKS2 / RFU, ZFP14 / Fold change vs veh, ZFP14 / RFU, ACTR2 / Fold change vs veh, ACTR2 / RFU, PPP3R1 / Fold change vs veh, PPP3R1 / RFU, PIK3R1 / Fold change vs veh, PIK3R1 / RFU, HNRNPA1 / Fold change vs veh, HNRNPA1 / RFU, RNF170 / Fold change vs veh, RNF170 / RFU, ZNF28 / Fold change vs veh, ZNF28 / RFU, RNGTT / Fold change vs veh, RNGTT / RFU, OGT / Fold change vs veh, OGT / RFU, BRD1 / Fold change vs veh, BRD1 / RFU, MARS / Fold change vs veh, MARS / RFU, ZNF655 / Fold change vs veh, ZNF655 / RFU, FAHD1 / Fold change vs veh, FAHD1 / RFU, BDP1 / Fold change vs veh, BDP1 / RFU, LRRCC1 / Fold change vs veh, LRRCC1 / RFU, ARID1A / Fold change vs veh, ARID1A / RFU, ZNF146 / Fold change vs veh, ZNF146 / RFU, ZNF330 / Fold change vs veh, ZNF330 / RFU, GPN3 / Fold change vs veh, GPN3 / RFU, C9orf123 / Fold change vs veh, C9orf123 / RFU, N4BP2L2 / Fold change vs veh, N4BP2L2 / RFU, ARFIP1 / Fold change vs veh, ARFIP1 / RFU, FAM179B / Fold change vs veh, FAM179B / RFU, BCL10 / Fold change vs veh, BCL10 / RFU, UHRF1BP1L / Fold change vs veh, UHRF1BP1L / RFU, BET1 / Fold change vs veh, BET1 / RFU, CNOT2 / Fold change vs veh, CNOT2 / RFU, ZNF268 / Fold change vs veh, ZNF268 / Fold change vs veh, ZNF507 / RFU, DGCR2 / Fold change vs veh, DGCR2 / RFU, WDSUB1 / Fold change vs veh, WDSUB1 / Fold change vs veh, HSP90B1 /// MIR3652 / RFU, ADSS / Fold change vs veh, ADSS / RFU, GK / Fold change vs veh, GK / RFU, ZNF148 / Fold change vs veh, ZNF148 / RFU, TAF9 / Fold change vs veh, TAF9 / RFU, SLC1A5 / Fold change vs veh, SLC1A5 / RFU, SLMO2 / Fold change vs veh, SLMO2 / RFU, ABCC4 / Fold change vs veh, ABCC4 / RFU, LOC101060439 /// RAP1B / Fold change vs veh, LOC101060439 /// RAP1B / RFU, RFX7 / Fold change vs veh, RFX7 / RFU, GTPBP10 / Fold change vs veh, GTPBP10 / RFU, CNEP1R1 / Fold change vs veh, CNEP1R1 / RFU, BIVM-ERCC5 /// ERCC5 / Fold change vs veh, BIVM-ERCC5 /// ERCC5 / RFU, ILF3 / Fold change vs veh, ILF3 / RFU 11762660_at / Fold change /veh 11762660_at / RFU VCAN (11757783_s_at) / Fold change /veh VCAN (11757783_s_at) / RFU DDX43 (11728927_at) / Fold change /veh DDX43 (11728927_at) / RFU KRT8 (11758188_x_at) / Fold change /veh KRT8 (11758188_x_at) / RFU NKD1 (11759106_at) / Fold change /veh NKD1 (11759106_at) / RFU SRD5A1 (11742802_a_at) / Fold change /veh SRD5A1 (11742802_a_at) / RFU TPSAB1 /// TPSB2 (11721975_s_at) / Fold change /veh TPSAB1 /// TPSB2 (11721975_s_at) / RFU GSTM3 (11746129_a_at) / Fold change /veh GSTM3 (11746129_a_at) / RFU IL23R (11737362_x_at) / Fold change /veh IL23R (11737362_x_at) / RFU TMEM51 (11727254_a_at) / Fold change /veh TMEM51 (11727254_a_at) / RFU PIWIL2 (11732686_x_at) / Fold change /veh PIWIL2 (11732686_x_at) / RFU ORM1 (11744905_x_at) / Fold change /veh ORM1 (11744905_x_at) / RFU CCDC152 (11743942_at) / Fold change /veh CCDC152 (11743942_at) / RFU ECM1 (11717891_a_at) / Fold change /veh ECM1 (11717891_a_at) / RFU IL23R (11748794_a_at) / Fold change /veh IL23R (11748794_a_at) / RFU TNFAIP8L3 (11732012_x_at) / Fold change /veh TNFAIP8L3 (11732012_x_at) / RFU MBOAT4 (11741988_at) / Fold change /veh MBOAT4 (11741988_at) / RFU 11764193_at / Fold change /veh 11764193_at / RFU TMEM53 (11763286_at) / Fold change /veh TMEM53 (11763286_at) / RFU MAGEB2 (11727129_at) / Fold change /veh MAGEB2 (11727129_at) / RFU TMEM200A (11744735_a_at) / Fold change /veh TMEM200A (11744735_a_at) / RFU CCDC152 (11751479_a_at) / Fold change /veh CCDC152 (11751479_a_at) / RFU FAM211A (11726209_a_at) / Fold change /veh FAM211A (11726209_a_at) / RFU RGS16 (11746705_a_at) / Fold change /veh RGS16 (11746705_a_at) / RFU VCAN (11755009_s_at) / Fold change /veh VCAN (11755009_s_at) / RFU RHOB (11743442_s_at) / Fold change /veh RHOB (11743442_s_at) / RFU RGS16 (11720943_a_at) / Fold change /veh RGS16 (11720943_a_at) / RFU RGS16 (11720944_at) / Fold change /veh RGS16 (11720944_at) / RFU, VPS4B / Fold change vs veh, VPS4B / RFU, CREB1 / Fold change vs veh, CREB1 / RFU, DNAJC13 / Fold change vs veh, DNAJC13 / RFU, GNAQ / Fold change vs veh, GNAQ / RFU, CDK5R1 / Fold change vs veh, CDK5R1 / RFU, ZRANB3 / Fold change vs veh, ZRANB3 / RFU, CUL4A / Fold change vs veh, CUL4A / RFU, CCNY / Fold change vs veh, CCNY / RFU, UFL1 / Fold change vs veh, UFL1 / RFU, COG3 / Fold change vs veh, COG3 / RFU, DIAPH2 / Fold change vs veh, DIAPH2 / RFU, SKA2 / Fold change vs veh, SKA2 / RFU, AFF3 / Fold change vs veh, AFF3 / RFU, LMF1 / Fold change vs veh, LMF1 / RFU, IPO11 / Fold change vs veh, IPO11 / RFU, DFFB / Fold change vs veh, DFFB / RFU, FOXP1 / Fold change vs veh, FOXP1 / RFU, CARD8 / Fold change vs veh, CARD8 / RFU, STRN3 / Fold change vs veh, STRN3 / RFU, ADK / Fold change vs veh, ADK / RFU, RASSF2 / Fold change vs veh, RASSF2 / RFU, WIPF1 / Fold change vs veh, WIPF1 / RFU, LARP1B / Fold change vs veh, LARP1B / RFU, RASA1 / Fold change vs veh, RASA1 / RFU, RB1 / Fold change vs veh, RB1 / RFU, PPFIA1 / Fold change vs veh, PPFIA1 / RFU, MAT2A / Fold change vs veh, MAT2A / RFU, CCT5 / Fold change vs veh, CCT5 / RFU, WDR92 / Fold change vs veh, WDR92 / RFU, CUX1 / Fold change vs veh, CUX1 / RFU, TTC7A / Fold change vs veh, TTC7A / RFU, TMEM135 / Fold change vs veh, TMEM135 / RFU, DEPTOR / Fold change vs veh, DEPTOR / RFU, CPM / Fold change vs veh, CPM / RFU, DNAJB6 / Fold change vs veh, DNAJB6 / RFU, CACNA2D3 / Fold change vs veh, CACNA2D3 / RFU, DTX4 / Fold change vs veh, DTX4 / RFU, TFCP2 / Fold change vs veh, TFCP2 / RFU, GMCL1 /// GMCL1P1 / Fold change vs veh, GMCL1 /// GMCL1P1 / RFU, AEBP2 / Fold change vs veh, AEBP2 / RFU, SNHG1 /// SNORD22 /// SNORD25 /// SNORD26 /// SNORD27 /// SNORD28 /// SNORD29 /// SNORD31 / Fold change vs veh, SNHG1 /// SNORD22 /// SNORD25 /// SNORD26 /// SNORD27 /// SNORD28 /// SNORD29 /// SNORD31 / Fold change (Aza/veh), C12orf56 (ProbeSet 11735607_a_at) / Fold change (ACY-1035/veh), C12orf56 (ProbeSet 11735607_a_at) / Fold change (Aza/veh), FGFR1OP (ProbeSet 11751329_s_at) / Fold change (ACY-1035/veh), FGFR1OP (ProbeSet 11751329_s_at) / Fold change (Aza/veh), VPS36 (ProbeSet 11739960_a_at) / Fold change (ACY-1035/veh), VPS36 (ProbeSet 11739960_a_at) / RFU SYPL1 (11715823_x_at) / Fold change /veh SYPL1 (11715823_x_at) / RFU IGFBP7 (11715501_s_at) / Fold change /veh IGFBP7 (11715501_s_at) / RFU REEP3 (11722064_at) / Fold change /veh REEP3 (11722064_at) / RFU IGLL1 (11728026_x_at) / Fold change /veh IGLL1 (11728026_x_at): dose or concentration left out as unconfirmed
Settings: MV-4-11 cells, 48 hours

Q: Which “Fold change /veh BIN1 (11741810_x_at)” value does the source give for `Nc1ncn([C@@H]2O[C@H](CO)[C@@H](O)[C@H]2O)c(=O)n1` [azacitidine] here?
A: Its value is 1.02.
